Source: patent US20060276440A1, “Treatment of inflammatory disorders” (priority 2005, published 2006)
“Also recorded” adds a separate entry of the source.

Experiments:
Type in all cases: cell-based, human
MMP-2 = MMP-2 production in SW1353 cells (ELISA, control)
Experimental: MMP-2 production can be used as control for the potential side-effects of compounds. This is because MMP-2 levels are not believed to change in response to IL-1/OSM.
The same supernatants of culture media used in the primary screen were assayed for IL-1/OSM-stimulated pro-MMP-13 production and MMP-2 production by enzyme-linked immunosorbent assay (ELISA).
For matrix metalloproteinase (MMP) measures, SW1353 cells were grown to confluence in 24 well plates, washed in DMEM (with Ham's F12) and placed in 500 ul of serum free DMEM/F-12 with 0.2% lactalbumin hydrosylate with and without OsM/IL-1. After 24 hrs, supernatants were collected and the amounts of proMMP13, totalMMP2, and proMMP1 were measured using Quantikine® ELISA kit for human MMPs (R & D systems, Minneapolis, Minn.). All MMP measures were normalized to viable cell numbers based on a tetrazolium (MTS) colorimetric measure (Promega, Madison, Wis.).
(§1) Multiple control assays were performed to investigate the selectivity of CA4 action. Matrix metalloproteinase-2 (MMP-2) production in SW1353 cells was tested. Mutation of MMP-2 causes a multicentric osteolysis and arthritis syndrome (Martignetti et al., Nat Genet 28, 261-265 (2001) the entire contents of which are incorporated herein by reference), and theoretically its expression should not be affected in treating RA. CA4 at approximately 110 nM had no effect on production of MMP-2 (FIG. 12E). An A549 Sentinel line that responded to TGF-β was then tested.

p38, JNK, ERK1/2 = p38, JNK, ERK1/2 phosphorylation in SW1353 cells (FACS, immunostaining)
Experimental: (§2) SW1353 cells were seeded and treated as described above. For the flow cytometric analysis of intracellular phopho-proteins, trypsinized SW1353 cells were fixed in 1.5% formaldehyde at room temperature (RT), and permeabilized in ice cold methanol for minimum of 10 minutes. After 2× wash in wash buffer (D-PBS, with 1% FBS), cells were stained with phospho-specific antibodies (5 ug/ml final) for 20 minutes, washed 2× in wash buffer, followed by 20 minutes incubation with phycoerythrin-conjugated anti-mouse IgG (10 ug/ml final). Following 2× wash in wash buffer, cells were analyzed by flow cytometry.
(§3) For immunohistochemistry of intracellular phospho-proteins, fixation and permeabilization conditions were identical to the ones used for flow cytometric analysis. For the visualization of the phosphor-specific proteins, ImmPRESS Universal Antibody kit (Vector Laboratories, Burlingame, Calif.) was used.
(§4) The cellular and molecular mechanisms by which CA4 repressed pro-MMP-13 production, using SW1353 as the model system were investigated. […] The pathways that mediate OSM and IL-1 signal transduction were then examined. Using inhibitors that target key components of the pathways, it was shown that JAK/STAT, p38, JNK, and NF-κB pathways were important for OSM/IL-1-stimulated pro-MMP-13 production (FIG. 13B-E), but not ERK or Cox1/2 pathways (data not shown). […]

OSM signaling = experiment: OSM-responsive SW1353 Sentinel cell line luciferase reporter; conditions: FIG. 12C, listed as CA4
From the text: Taken together, it appears that CA4 interferes as well with OSM signal transduction that led to the synergistic upregulation of pro-MMP-13 by OSM/IL-1 in SW1353 cells.

TGF-β = experiment: A549 Sentinel line TGF-β-stimulated reporter activity; conditions: as high as 1 μM; data not shown
Experimental: as §1

[1] = system: JAK/STAT pathway (STAT 1, 3, 5); experiment: STAT phosphorylation (FACS) and nuclear translocation (immunostaining) in SW1353 cells; conditions: 20 nM, OSM/IL-1 activation
Experimental: as §2, §3, §4

MMP-13 mRNA = MMP-13 mRNA by Taqman in OSM/IL-1-stimulated SW1353 cells; conditions: FIG. 13A
Experimental: Total RNA was isolated using RNAzol™ B (TEL-TEST Inc., Friendswood, Tex.). SuperScript™ first-strand synthesis system (Invitrogen) was used for cDNA generation. All oligonucleotide primers and fluorescent-labeled TaqMan probes were from Applied Biosystems (Foster City, Calif.). Relative quantization of gene expression was performed using the MX3000p real-time PCR instrument (Stratagene, La Jolla, Calif.). PCR reactions for all samples were performed in triplicates using 50 ng of cDNA. To compensate for the variation in the total cDNA, all readouts were normalized to an endogenous control (18S ribosomal RNA). Thermocycler conditions comprised an initial holding at 50° C. for 2 min, then 95° C. for 10 min, followed by a 2-step TaqMan PCR program consisting of 95° C. for 15 seconds, and 60° C. for 60 seconds for 40 cycles. The relative changes in gene expression were quantified as described in Applied Biosystems User Bulletin NO. 2 (P/N 4303859).
The cellular and molecular mechanisms by which CA4 repressed pro-MMP-13 production, using SW1353 as the model system were investigated. […] The pathways that mediate OSM and IL-1 signal transduction were then examined. […]

COc1ccc(/C=C\c2cc(OC)c(OC)c(OC)c2)cc1O [Combretastatin A4 (1), (Z)-5-(3,4,5-trimethoxystyryl)-2-methoxyphenol]
effect on production of MMP-2 (MMP-2; SW1353, CA4 at approximately 110 nM, FIG. 12E, listed as CA4): no effect; also recorded: failed to inhibit MMP-2 production
inhibitory effect on MMP-13 expression compared to MMP-2 expression (MMP-2; SW-1353, FIG. 5, listed as 1): greater inhibitory effects on MMP-13 expression compared to MMP-2 expression; also recorded: preferentially inhibit MMP-13 expression compared to MMP-2 expression
p38 or JNK phosphorylation (p38, JNK, ERK1/2; 20 nM, FACS or immunostaining): Nor was p38 or JNK phosphorylation affected
JNK (pT183/pY185) and ERK1/2 (pT202/pY204) phosphorylation (p38, JNK, ERK1/2; CA4 (20 nM) 2 hrs pretreatment, IL-1/OSM 15 minutes, data not shown): not affected
OSM-induced reporter luciferase activity (OSM signaling): dose-dependently inhibited the reporter luciferase activity
effect on TGF-β-stimulated reporter activity (TGF-β): no effect
STAT 1, 3, 5 phosphorylation ([1]; FACS): did not affect
STAT nuclear translocation ([1]; immunostaining): did not affect
OSM/IL-1-induced MMP-13 mRNA levels (MMP-13 mRNA): represses OSM/IL-1-induced MMP-13 mRNA levels
